In paper PMC6010089, “Isothiocyanates: cholinesterase inhibiting, antioxidant, and anti-inflammatory activity” (Journal of Enzyme Inhibition and Medicinal Chemistry, 2018):
Where two headings read alike, the source gives them in different places.

What was measured:
[1] = molecular target: T1, COX-2 (Homo sapiens, UniProt P35354); assay: Cayman human COX-2 inhibitor screening kit, PGF2alpha ELISA; format: biochemical; conditions: read-out: COX-2 / Inhibition (%)^b
T1 construct: gene PTGS2
T1 sequence (P35354 18-604): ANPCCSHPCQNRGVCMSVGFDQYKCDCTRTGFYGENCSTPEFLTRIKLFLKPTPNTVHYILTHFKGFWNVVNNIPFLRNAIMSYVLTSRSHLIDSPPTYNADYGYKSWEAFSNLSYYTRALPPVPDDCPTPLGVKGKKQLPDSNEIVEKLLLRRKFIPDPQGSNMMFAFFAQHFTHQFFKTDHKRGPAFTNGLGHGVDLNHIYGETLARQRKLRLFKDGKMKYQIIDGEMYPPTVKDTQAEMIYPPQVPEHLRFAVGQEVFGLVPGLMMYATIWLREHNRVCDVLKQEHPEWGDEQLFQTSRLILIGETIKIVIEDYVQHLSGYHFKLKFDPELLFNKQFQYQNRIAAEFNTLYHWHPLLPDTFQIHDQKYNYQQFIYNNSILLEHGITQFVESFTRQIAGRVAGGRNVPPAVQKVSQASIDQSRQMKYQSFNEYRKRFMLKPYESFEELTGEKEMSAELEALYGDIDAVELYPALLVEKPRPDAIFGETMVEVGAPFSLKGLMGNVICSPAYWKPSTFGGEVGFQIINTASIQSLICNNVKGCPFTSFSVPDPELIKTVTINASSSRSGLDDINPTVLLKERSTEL

[2] = molecular target: T2, acetylcholinesterase (AChE) (Electrophorus electricus, UniProt O42275); assay: modified Ellman assay; format: biochemical; set-up: electric eel, type V-S
T2 sequence (O42275 24-633): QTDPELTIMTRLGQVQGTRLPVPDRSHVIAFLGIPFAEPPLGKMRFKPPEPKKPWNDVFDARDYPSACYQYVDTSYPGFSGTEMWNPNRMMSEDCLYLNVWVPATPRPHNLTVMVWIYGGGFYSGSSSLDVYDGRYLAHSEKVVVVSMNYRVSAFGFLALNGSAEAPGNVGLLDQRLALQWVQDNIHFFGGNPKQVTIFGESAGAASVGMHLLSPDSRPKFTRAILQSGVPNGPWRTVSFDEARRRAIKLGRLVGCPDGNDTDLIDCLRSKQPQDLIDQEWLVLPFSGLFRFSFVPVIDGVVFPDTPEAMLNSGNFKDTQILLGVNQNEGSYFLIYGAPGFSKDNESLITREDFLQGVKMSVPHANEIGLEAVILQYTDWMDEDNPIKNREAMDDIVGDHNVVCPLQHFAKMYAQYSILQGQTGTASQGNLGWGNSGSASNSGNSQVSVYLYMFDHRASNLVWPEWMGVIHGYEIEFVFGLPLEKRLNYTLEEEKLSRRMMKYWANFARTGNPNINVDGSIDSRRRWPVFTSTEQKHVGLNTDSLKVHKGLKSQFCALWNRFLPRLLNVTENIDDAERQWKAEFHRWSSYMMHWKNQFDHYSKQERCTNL

[3] = molecular target: T2, acetylcholinesterase (AChE); assay: biochemical; conditions: read-out: AChE / Inhibition (%)^a
[4] = molecular target: T3, butyrylcholinesterase (BChE) (Equus caballus, UniProt P81908); assay: modified Ellman assay; format: biochemical; set-up: from equine serum
T3 sequence (P81908 whole entry): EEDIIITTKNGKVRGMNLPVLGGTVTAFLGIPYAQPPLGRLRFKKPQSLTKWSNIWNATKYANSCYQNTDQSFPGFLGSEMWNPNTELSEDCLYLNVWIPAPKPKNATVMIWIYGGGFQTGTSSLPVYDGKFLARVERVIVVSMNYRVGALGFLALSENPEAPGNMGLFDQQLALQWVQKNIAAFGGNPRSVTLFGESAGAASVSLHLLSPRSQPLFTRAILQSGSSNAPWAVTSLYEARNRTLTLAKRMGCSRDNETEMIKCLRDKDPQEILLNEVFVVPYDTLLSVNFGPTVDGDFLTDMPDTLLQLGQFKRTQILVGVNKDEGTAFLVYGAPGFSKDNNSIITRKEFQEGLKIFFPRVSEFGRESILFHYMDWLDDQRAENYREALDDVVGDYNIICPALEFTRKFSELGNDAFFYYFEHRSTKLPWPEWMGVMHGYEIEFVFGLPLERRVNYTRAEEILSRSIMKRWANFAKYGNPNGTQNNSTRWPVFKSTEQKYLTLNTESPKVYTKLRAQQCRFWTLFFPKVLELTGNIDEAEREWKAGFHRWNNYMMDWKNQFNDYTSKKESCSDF

[5] = molecular target: T1, COX-2; assay: biochemical; set-up: COX-2 inhibitor screening kit, 10 min preincubation, arachidonic acid 2 min, PGF2alpha ELISA at 412 nm; conditions: read-out: COX-2 / Inhibition (%)^b
Procedure: To analyse the inhibition of the COX-2 enzyme activity mediated by the selected ITCs, the COX-2 (human) inhibitor screening assay kit from Cayman was used. In summary, the COX-2 enzyme was incubated with the samples (having final concentration in the assay of 50 μM, in 96% ethanol) for 10 min at 37 °C and subsequently the reaction was initiated by adding arachidonic acid and incubating the mixture for 2 min at 37 °C. The background tubes correspond to inactivated COX-2 enzyme obtained after keeping the tubes containing enzymes in boiling water for 3 min along with sample solvent. Enzyme catalysis was blocked by adding saturated stannous chloride solution. Prostaglandin (PGF2α) release was quantified using ELISA at 412 nm. Indomethacin solution (having final concentration in the assay of 10 μM, in 96% ethanol) was used as a positive control.

[6] = molecular target: T3, butyrylcholinesterase (BChE); assay: biochemical; conditions: read-out: BChE / Inhibition (%)^a

Structure (SMILES)	inhibition at 50 µM [1]	IC50 [2]	inhibition at 1140 µM [3]	inhibition at 1140 µM [4]	inhibition at 50 µM [5]	IC50 ([2]; read-out: AChE / IC50)	inhibition at 1140 µM [6]
S=C=Nc1ccccc1 [compound 1, phenyl isothiocyanate]	98.9 ± 0.3%	–	–	–	–	–	–
Cc1ccc(N=C=S)cc1 [compound 5, 4-Methylphenyl ITC]	–	930 µM	58.4 ± 1.1%	40.7 ± 0.7%	13.6 ± 0.8%	–	–
COc1ccccc1N=C=S [compound 7, 2-Methoxyphenyl ITC]	99 ± 0.7%	–	57 ± 1.5%	–	–	570 µM	19.5 ± 0.1%
COc1cccc(N=C=S)c1 [compound 8, 3-Methoxyphenyl ITC]	–	–	61.4 ± 1.6%	–	–	1000 µM	–
CSCCCN=C=S [compound 11, 3-(Methylsulfanyl)propyl ITC]	48 ± 0.3%	–	4.4 ± 0.7%	–	–	–	15.4 ± 0.3%
